In paper PMC8992272, “Stabilities of Three Key Biological Trisulfides with Implications for Their Roles in the Release of Hydrogen Sulfide and Bioaccumulation of Sulfane Sulfur” (ACS Omega, 2022):

Columns and labels:
Assay type in all cases: physicochemical
[1] = Equilibrium between di-, tri- and tetrasulfides in the presence of elemental sulfur (1H NMR); conditions: water with elemental sulfur, 40 °C, after 15 days, no amine
Method: To test this hypothesis, a reaction was completed in D2O with elemental sulfur, NAC disulfide, and butylamine.
To understand why the degradation leveled off, NAC trisulfide was dissolved in water, elemental sulfur was added, and the contents were heated to 40 °C.
N-Acetylcysteine disulfide (9.3 mg, 23 μmol) was dissolved in 600 μL of D2O. Elemental sulfur (6.8 mg, 0.21 mmol) and butylamine (18.5 mg, 0.25 mmol) were added, and the ^1H NMR spectra were periodically obtained to track the equilibrium.

[2] = Stability in the presence of acetonitrile, benzamide, zinc sulfate or iron sulfate, or in methanol-d4 (1H NMR)
Method: N-Acetylcysteine trisulfide (26.5 mg, 66 μmol) was dissolved in 600 μL of D2O. Acetonitrile (3.0 mg, 73 μmol) was added, and the ^1H NMR spectra were taken periodically to track degradation.
N-Acetylcysteine trisulfide (31.4 mg, 78 μmol) was dissolved in 600 μL of D2O. Benzamide (9.4 mg, 78 μmol) was added, and the ^1H NMR spectra were taken periodically to track degradation.
N-Acetylcysteine trisulfide (15.0 mg, 38 μmol) was dissolved in 600 μL of D2O. ZnSO4 (11.8 mg, 73 μmol) was added, and the ^1H NMR spectra were taken periodically to track degradation.
N-Acetylcysteine trisulfide (15.0 mg, 38 μmol) was dissolved in 600 μL of D2O. FeSO4·7H2O (11.6 mg, 41 μmol) was added, and the ^1H NMR spectra were taken periodically to track degradation.
N-Acetylcysteine trisulfide (32.1 mg, 80 μmol) was dissolved in 600 μL of CD3OD. The ^1H NMR spectra were taken periodically to track degradation.
Cysteine trisulfide (5.1 mg, 19 μmol) was added to 600 μL of D2O. Solution was filtered to remove undissolved particles. […] The ^1H NMR spectra were taken periodically to track degradation.
Cysteine trisulfide (6.8 mg, 25 μmol) was added to 600 μL of D2O. Solution was filtered to remove undissolved particles. […] The ^1H NMR spectra were taken periodically to track degradation.

Solubility observations = conditions: CDCl3 and acetone
[3] = Stability in water/D2O buffered at different pH values, tracked by 1H NMR
Excerpt: The ^1H NMR spectra of NAC and the disulfide, trisulfide, and tetrasulfide of NAC had peaks at unique values for chemical shifts and allowed for their easy characterization (Figure 3). Pure chemicals of each sulfide were synthesized and characterized by ^1H and ^13C NMR spectroscopy as well as by high-resolution mass spectroscopy. The unique chemical shifts of the peaks for the Ha and Hb/Hc protons on the sulfides allowed the integration of each sulfide to be determined.
The stability of NAC trisulfide in water buffered at pH values of 5.8, 7.4, and 9.0 was measured.
The stability of cysteine trisulfide was investigated in buffered water at pH values of 5.8, 7.0, and 9.0. […] At pH values of 5.8, 7.0, and 9.0, the cysteine trisulfide was soluble and its ^1H NMR spectra were obtained.
The stability of glutathione trisulfide was investigated at pH values of 5.8, 7.4, and 9.0 (Figure S14a). The degradation of glutathione trisulfide was more rapid at pH values of 5.8 and 7.4 than that of the trisulfides of NAC and cysteine. At an acidic pH of 5.8, 71% of glutathione trisulfide degraded after 10 days. At pH values of 7.4 and 9.0, glutathione trisulfide degraded 79 and 81%, respectively, at day 9. […] The degradation of glutathione trisulfide reached an equilibrium of approximately 20% with the disulfide due to the reaction catalyzed by amine with elemental sulfur. Rate constants and half-lives were obtained for the degradation of glutathione trisulfide at each pH value using early data points unaffected by the equilibrium. At pH values of 5.8, 7.4, and 9.0, the estimated half-lives were 6.3 days (151 h), 0.90 days (21.6 h), and 0.79 days (19.0 h), respectively (Figure S14b).
The stability of NAC tetrasulfide was investigated in D2O buffered at pH values of 5.8, 7.4, and 9.0 (Figure S16a). At a pH of 5.8, NAC tetrasulfide degraded by 13% after 9 days. At pH values of 7.4 and 9.0, the tetrasulfide degraded by 55 and 52%, respectively, after 9 days. At each pH, the degradation product was NAC trisulfide, elemental sulfur, and a small amount of NAC disulfide (<3%). […] Estimated rate constants and half-lives for the degradation of NAC tetrasulfide at each pH were obtained. At pH values of 5.8, 7.4, and 9.0, the estimated half-lives were 53.3, 7.5, and 8.2 days, respectively (Figure S16b).

disulfide formed [1]: 12%
tetrasulfide formed [1]: 11%
degradation ([2]; acetonitrile and benzamide added, D2O, after 8 days): No degradation
degradation ([2]; methanol-d4, after 8 days): no observable degradation
stability ([2]; zinc sulfate and iron sulfate in D2O, 11 days): stable
solubility (Solubility observations): very limited solubility
stability ([3]; all pH values tested (abstract)): stable
degradation ([3]; water buffered at pH 5.8, 7.4 and 9.0, after 8 days): no observable degradation
Structure (SMILES): CC(=O)N[C@@H](CSSSC[C@H](NC(C)=O)C(=O)O)C(=O)O [NAC trisulfide, N-Acetylcysteine Trisulfide]
